# Experimental data from US6867179B1, “Methods of inducing hair growth and coloration” (Trustees of Boston University, priority 1994, dated 2005).
# “Also recorded” adds a separate entry of the source.
# How the values were obtained:
# Type in all cases: cell-based, human
# MM4 cells [1] = experiment: MM4 cell yields after UV or sham irradiation with growth factor supplementation; settings: UV 10 mJ/cm^2, 50 ng/ml NGF, 4 experiments
# Method: Melanocytes or MM4 cells were plated in 60 mm diameter tissue culture dishes. Melanocytes were maintained in Medium 199 supplemented with 7% fetal bovine serum (FBS), 10 ng/ml epidermal growth factor (Collaborative Research), […] (Sigma), […] (Collaborative Research), […] (Sigma), 1.4×10^−6 M hydrocortisone (Calbiochem), […] (Calbiochem), and 10 ng/ml basic fibroblast growth factor (Collaborative Research) (basal melanocyte medium). MM4 cells were maintained in 55.3% DME, 27.6% L15, 15% FBS, 1% nonessential amino acids (GIBCO BRL), 2 mM glutamine and 10 µg/ml insulin. After 24 hours, medium was replaced by phosphate buffered saline (PBS) and cells were irradiated using a 1 KW xenon arc solar simulator (XMN 1000-21, Optical Radiation Corp., Azuza, Calif.) with 5, 10, or 25 mJ/cm^2 UV through the petri dish plastic cover. Irradiance was adjusted to 4×10^−5 UV cm^−2 and metered with a research radiometer (model IL1700A, International Light, Newburyport, Mass.) fitted with a UVB probe at 285 Å 5 nm. After UV irradiation, cells were maintained in their respective media without FBS for 2 days (MM4 cells) or 3 days (melanocytes) and processed as indicated. Sham irradiated control cultures were handled identically but laced under a dark cloth adjacent to the UV beam.
# FIGS. 2B and 2D show MM4 cell yields 24-72 hours after a single UV irradiation of 10 mJ/cm^2. FIGS. 2C and 2e show MM4 cell yields 24-72 hours after sham irradiation. Cells in FIGS. 2B and 2C were supplemented with 50 ng/ml NGF or diluent alone. Cells in FIGS. 2D and 2E were supplemented with 50 ng/ml bFGF or diluent alone.
# (§1) Melanocytes or MM4 cells were plated as described in Example 1. After irradiation, melanocytes were maintained in basal melanocyte medium lacking FBS and hydrocortisone, with 50 ng/ml NGF or diluent alone (melanocyte medium). MM4 cells were maintained in DME supplemented with 50 ng/ml NGF or diluent alone.
# MM4 cells [2] = experiment: DNA fragmentation (DNA ladder) after UV irradiation, FIG. 3A; settings: 50 ng/ml NGF, 24 hours after UV irradiation
# Method: Cells in 100 mm tissue culture dishes were washed with cold PBS and disrupted in lysis buffer pH8 (10 mM tris, 150 mM NaCl, 0.1 mM EDTA, 1% SDS, 200 µg/ml proteinase K). After 15 hour incubation at […], samples were extracted twice with phenol plus chloroform (1:1, V/V) and precipitated overnight with ethanol (2.5×volume) and 3 M sodium acetate (1/10×volume). The DNA was then digested with DNAse free ribonuclease ([…]) for one hour at […], separated on 1% agarose gel and stained with ethidium bromide. The size marker is 100 bp DNA ladder (STD) (Gibco/BRL, Gaithersburg, Md.).
# as §1
# The standard (STD) is 100 bp DNA ladder (Gibco/BRL). (See FIG. 3A).
# Bcl-2 protein = Bcl-2 protein expression in MM4 cells (FACScan, Western blot)
# Method: To determine if NGF induces Bcl-2 protein, MM4 cells were UV-irradiated with 10 mJ/cm^2 or sham irradiated and then supplemented with NGF or diluent alone as explained in Example 3. Twenty-four hours after irradiation, cells were washed with PBS and then detached with 0.5 mM EDTA and washed again with PBS. 10^6 cells were incubated with […] mouse anti human Bcl-2 monoclonal antibody (DAKO Co., Carpinteria, Calif.) or with the same concentration of normal mouse IgG (Cappel, Organon Teknika Co., West Chester, Pa., USA) in PBS with 0.3% Saponin (Sigma, St, Louis, Mo.) for 2 hours at 4%C. After three washes with PBS, cells were incubated with fluorescein-conjugated goat anti-mouse IgG (1 hour at 4%C) (Cappel), washed four times in PBS, fixed with 0.1% fresh formaldehyde, and washed three times in PBS. Fluorescence intensity was determined using FACScan flow cytometer (Becton-Dickinson, San Jose, Calif.).
# (−) mouse IgG control; (_) diluent alone; ( . . . ) 50 ng/ml NGF.
# MM4 cells were extracted in RIPA buffer (50 mM Tris-HCl [pH 8.0], 0.15 M NaCl, 0.5% sodium deoxycholate, 1% Triton X-100) in the presence of […] aprotinin and 75 µg/ml phenylmethylsulfonyl fluoride, sonicated for 1-3 seconds and centrifuged. […] of protein per lane were separated on 12% SDS/PAGE and blotted onto nitrocellulose paper (overnight, 40V). […]
# p75 NGF-R = experiment: Northern blot of p75 NGF-R mRNA in NGF-supplemented melanocytes
# melanocytes = experiment: NGF protection of melanocytes from beta-amyloid-induced cell death
# Method: Melanocytes were maintained as above in hormone supplemented medium lacking hydrocortisone. Cells were supplemented with 25 microM of beta-amyloid 1-40 in the presence of 50 ng/ml NGS or diluent.
# Photographs of representative fields were obtained and the percent of the live cells (spread) was determined 48 hours after addition of beta-amyloid and NFG or beta-amyloid and diluent. In the presence of beta-amyloid and diluent 77±8.5% appeared spread as compared to 96±1.4% in cultures supplemenbetated in beta-amyloid and NGF.
# p75 = p75 signal transduction in melanocytes (JNK activation, intracellular ceramide)
# Method: To investigate p75 signal transduction, it was first determined by RT-PCR that trkA and trkC are not expressed in MC maintained in choleragen/TPA-free medium. MC were incubated with 10 ng/ml nerve growth factor (NGF) or neurotrophin-3 (NT-3) for 30 minutes and c-Jun amino terminal kinase (JNK) activation was determined. […] Furthermore, within 3 hours p75 activation by NGF, but not by NT-3, lead to a 2-fold increase of intracellular ceramide. As before, ceramide increase was abrogated by pre-incubation with the cyclic peptide. Because in cell lines, UV irradiation directly activates cell surface receptors such as Fas and the TNFα receptor, sham- or UV-irradiated MC were used to determine p75 activation.
# [3] = NGF supplementation, preliminary data
substance,measurement,setting,value
"NGF: nerve growth factor, neurotrophin ligand of p75 NGF-R and trk",Cell yields of MM4 cells versus diluent alone,MM4 cells [1],significantly higher
same,DNA fragmentation after UV irradiation,MM4 cells [2],not fragmented; also recorded: far less fragmentation
same,Bcl-2 level,"Bcl-2 protein; UV 10 mJ/cm^2 followed by 50 ng/ml NGF, 24 hours",substantially higher; also recorded: Bcl-2 induction
same,Bcl-2 level,"Bcl-2 protein; sham irradiated, 50 ng/ml NGF",only low levels of Bcl-2 protein
same,p75 NGF-R mRNA transcript levels versus diluent controls,p75 NGF-R,several-fold higher
same,Percent of live cells (spread),"melanocytes; 25 microM beta-amyloid 1-40 and 50 ng/ml NGF, 48 hours",96±1.4%
same,Cell yields of beta-amyloid-supplemented melanocytes,"melanocytes; NGF addition, within 3-5 days",enhanced cell yields
same,Bcl-2 levels in beta-amyloid treated cells,melanocytes; [3],increases Bcl-2 levels
same,Beta-amyloid-induced Bax upregulation,melanocytes; [3],decreases the beta-amyloid-induced Bax upregulation
same,Appearance of beta-amyloid exposed melanocytes,melanocytes; in the presence of NGF,appear healthy and spread on the dish surface
same,JNK activation (phosphorylation of GST-c-Jun(1-79)),"p75; 10 ng/ml, 30 minutes, MC without trkA and trkC",substantially induced phosphorylation of GST-c-Jun(1-79)
same,Increase of intracellular ceramide,p75; within 3 hours,2 fold
